# Experimental data as given in patent publication US10351575B2, “Bicyclic urea, thiourea, guanidine and cyanoguanidine compounds useful for the treatment of pain” (Array BioPharma Inc., priority 2012, dated 2019).
# Target: His-tagged recombinant human TrkA (Homo sapiens (Human), UniProt P04629)
# Assay: TrkA LanthaScreen Eu Kinase Binding Assay
# Details: averaged IC50; TR-FRET binding, 60 min, 22° C.; read-out: TrkA Enzyme IC50
# Outline: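 TR-FRET binding: 5 nM His-tagged human TrkA cytoplasmic domain with 4 nM Alexa-Fluor Tracer 236, 2 nM biotin anti-His and 2 nM Eu-streptavidin. Buffer was 25 mM MOPS pH 7.5, 5 mM MgCl2, 0.005% Triton X-100, 2% DMSO, 60 min at 22° C. IC50 from a four-parameter fit of ratiometric percent of control.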
# Sequence of His-tagged recombinant human TrkA (P04629 440-796): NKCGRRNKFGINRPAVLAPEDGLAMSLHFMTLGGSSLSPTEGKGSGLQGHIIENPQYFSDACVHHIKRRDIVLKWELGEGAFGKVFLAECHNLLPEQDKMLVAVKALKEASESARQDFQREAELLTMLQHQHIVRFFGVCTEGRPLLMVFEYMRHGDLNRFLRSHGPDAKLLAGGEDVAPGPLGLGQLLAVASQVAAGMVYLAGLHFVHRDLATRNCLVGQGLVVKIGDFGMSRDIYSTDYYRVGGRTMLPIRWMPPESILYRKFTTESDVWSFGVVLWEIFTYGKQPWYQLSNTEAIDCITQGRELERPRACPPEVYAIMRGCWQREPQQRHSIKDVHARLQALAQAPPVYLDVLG
row,IC50,SMILES
1,< 100 nM,"Cc1c(OC[C@H]2CN(C)CCO2)nn(-c2ccccc2)c1NC(=O)N[C@@H]1c2ccccc2C(C)(C)C[C@H]1O [Example 74, 1-((1R,2R)-2-hydroxy-4,4-dimethyl-1,2,3,4-tetrahydronaphthalen-1-yl)-3-(4-methyl-3-(((R)-4-methylmorpholin-2-yl)methoxy)-1-phenyl-1H-pyrazol-5-yl)urea]"
2,< 100 nM,"Cc1c(OC[C@H]2CN(C)CCO2)nn(-c2ccccc2)c1NC(=O)N[C@H]1c2ccccc2C(C)(C)C[C@@H]1O [Example 75, 1-((1S,2S)-2-hydroxy-4,4-dimethyl-1,2,3,4-tetrahydronaphthalen-1-yl)-3-(4-methyl-3-(((R)-4-methylmorpholin-2-yl)methoxy)-1-phenyl-1H-pyrazol-5-yl)urea]"
3,< 100 nM,"Cc1c(OC[C@@H]2CN(C)CCO2)nn(-c2ccccc2)c1NC(=O)N[C@@H]1c2ccccc2C(C)(C)C[C@H]1O [Example 76, 1-((1R,2R)-2-hydroxy-4,4-dimethyl-1,2,3,4-tetrahydronaphthalen-1-yl)-3-(4-methyl-3-(((S)-4-methylmorpholin-2-yl)methoxy)-1-phenyl-1H-pyrazol-5-yl)urea]"
4,< 100 nM,"Cc1c(OC[C@H]2CN(C)CCO2)nn(-c2ccccc2)c1NC(=O)NC1c2cc(F)c(F)cc2C(C)(C)C[C@H]1O (stereo partly drawn) [Example 77, 1-(trans-6,7-difluoro-2-hydroxy-4,4-dimethyl-1,2,3,4-tetrahydronaphthalen-1-yl)-3-(4-methyl-3-(((R)-4-methylmorpholin-2-yl)methoxy)-1-phenyl-1H-pyrazol-5-yl)urea]"
5,< 100 nM,"Cc1c(OC[C@H]2CN(C)CCO2)nn(-c2ccccc2)c1NC(=O)NC1c2ccccc2C2(CC2)[C@@H]1O (stereo partly drawn) [Example 78, 1-(trans-2′-hydroxy-2,3′-dihydrospiro[cyclopropane-1,1′-inden]-3′-yl)-3-(4-methyl-3-(((R)-4-methylmorpholin-2-yl)methoxy)-1-phenyl-1H-pyrazol-5-yl)urea]"
6,< 100 nM,"CNC(=O)c1nn(-c2ccccc2)c(NC(=O)N[C@@H]2c3cc(F)c(F)cc3C(C)(C)C[C@H]2O)c1C [Example 79, 5-(3-((1,2-trans)-6,7-difluoro-2-hydroxy-4,4-dimethyl-1,2,3,4-tetrahydronaphthalen-1-yl)ureido)-N,4-dimethyl-1-phenyl-1H-pyrazole-3-carboxamide]"
7,< 100 nM,"Cc1c(-c2cnn(C)c2)nn(-c2ccccc2)c1NC(=O)N[C@@H]1c2cc(F)c(F)cc2C(C)(C)C[C@H]1O [Example 80, 1-((1,2-trans)-6,7-difluoro-2-hydroxy-4,4-dimethyl-1,2,3,4-tetrahydronaphthalen-1-yl)-3-(1′,4-dimethyl-1-phenyl-1H,1′H-[3,4′-bipyrazol]-5-yl)urea]"
8,< 100 nM,"Cc1c(OCC2CCN(C)CC2)nn(-c2ccccc2)c1NC(=O)N[C@@H]1c2cc(F)c(F)cc2C(C)(C)C[C@H]1O [Example 81, 1-((1,2-trans)-6,7-difluoro-2-hydroxy-4,4-dimethyl-1,2,3,4-tetrahydronaphthalen-1-yl)-3-(4-methyl-3-((1-methylpiperidin-4-yl)methoxy)-1-phenyl-1H-pyrazol-5-yl)urea]"
9,< 100 nM,"COc1nn(-c2ccccc2)c(NC(=O)N[C@@H]2c3cc(F)c(F)cc3C(C)(C)C[C@H]2O)c1C [Example 82, 1-((1,2-trans)-6,7-difluoro-2-hydroxy-4,4-dimethyl-1,2,3,4-tetrahydronaphthalen-1-yl)-3-(3-methoxy-4-methyl-1-phenyl-1H-pyrazol-5-yl)urea]"
10,< 100 nM,"Cc1c(-c2ccc(=O)n(C)c2)nn(-c2ccccc2)c1NC(=O)N[C@@H]1c2cc(F)c(F)cc2C(C)(C)C[C@H]1O [Example 83, 1-((1,2-trans)-6,7-difluoro-2-hydroxy-4,4-dimethyl-1,2,3,4-tetrahydronaphthalen-1-yl)-3-(4-methyl-3-(1-methyl-6-oxo-1,6-dihydropyridin-3-yl)-1-phenyl-1H-pyrazol-5-yl)urea]"
